Measured values reported in patent publication US11351124B2, “Sustained release of formulations of local anesthetics” (EUPRAXIA PHARMACEUTICALS INC., priority 2015, dated 2022).
Values after ≈ are worked out from the molar mass of the structure shown. Values joined by “and” are separate entries in the source; they are usually repeats but may differ in a detail not shown here. Identical values can stand only once. Values belong to the compound of their own block, whether it stands above or below them.

Tests used:
[1] = Dissolution of ropivacaine crystals in suspension, USP I apparatus; assay type: physicochemical
Procedure: Prior to assessing intrinsic dissolution of ropivacaine, the kinetics of dissolution of crystals in suspension was assessed using a USP I apparatus with either large (1 L capacity, filled to 500 mL) or small (150 mL) dissolution baths. The stir speed was 50 rpm in the large vessel method and 100 rpm in the small vessel method and temperature was 37° C. The media was PBS with 0.1% SDS. The commercial ropivacaine was dissolved rapidly with greater than 60% of the material dissolved within 30 minutes. A 17 mg sample dissolving in the large vessel reached a plateau within 4 hours, although only approximately 80% of the ropivacaine added to the experiment was accounted for.
Approximately 100-120% of the compound was accounted for in this assay. […] The Y-intercept values of the regression is representative of the magnitude of the “burst”, which was 25× higher for the commercial sample compared to the recrystallized sample. See also FIG. 1A.

postsurgical pain = conditions: in vivo; cited from earlier work
[2] = Franz cell diffusion of ropivacaine through PVA membranes; assay type: physicochemical; conditions: for Fold Decrease in D: relative to buffer with no membrane
Procedure: The diffusion behavior of the encapsulated drug in vivo can be predicted based on diffusion coefficient measured in a Franz cell diffusion system. In particular, diffusion coefficient (D) can be quantified according to Equation 1: [formula] where: • D: Diffusion coefficient (cm^2/s) • L: membrane thickness (cm) • J: flux: (μg×cm^−2×s^−1)=slope (μg/mL/h)×volume (9.8 mL)[…](3600 s/h×A cm^2) • A: surface area of the Franz cell (0.650 cm^2) • ΔC: concentration gradient of ropivacaine (μg/mL or μg/cm^3)=339.98 μg/mL (measured […] fluid concentration)−0 μg/mL (assumed […] concentration) The diffusion of ropivacaine through PVA membranes was measured using a Franz diffusion cell system. The system includes a top donor chamber containing a donor fluid, which is sealed with parafilm during the experiment; and a bottom receptor chamber containing a receptor fluid (9.8 mL of PBS pH 7.3). The donor fluid was prepared in a single batch for use in all diffusion experiments, and consisted of PBS pH 7.3. It was prepared by stirring excess solid ropivacaine in the media for 3 days, and filtering to remove the solids with a 0.22 μm filter. The assayed content was 339.98 μg/m L. The rate of appearance of ropivacaine in the Franz cell receptor fluid (the slope of the concentration versus time plot of the data multiplied by the receptor cell volume, 9.8 mL), and the measured membrane thickness (after hydration), were used to calculate the ropivacaine diffusion coefficient through the membrane, using the formula for Fick's law (Equation 1). The concentration of ropivacaine in the receptor (bottom) chamber was measured at different time points, and the diffusion coefficient was determined from Fick's first law of diffusion. Measured concentrations were converted to total drug transport (μg) by multiplying by the receptor fluid volume (9.8 mL for all experiments). FIGS. 3-5 show the diffusion rate for the first 5 hours for three PVA membranes at various degrees of crosslinking induced by various amounts of citric acid.

[3] = Solubility of ropivacaine in various aqueous media; assay type: physicochemical
Procedure: As used herein, the aminoamide local anesthetic agents are typically in the free base form, which have lower solubility in an aqueous medium than their salt form (e.g., HCl salt). The low solubility (e.g., less than 1 mg/ml) enables a rapid formation of a saturated solution within the PVA coating or shell.

[4] = Intrinsic dissolution of ropivacaine, uncoated vs coated with PVA membrane (FIG. 2); assay type: physicochemical; conditions: PVA membrane Mn=20-200 kDa, 87% hydrolyzed, 12% citric acid, cured at 125° C. for 6 hours
[5] = USP I, PBS with 0.1% SDS, 37° C.
[6] = PVA membrane 87% hydrolysis, Mn 20-220 kDa, 4% citric acid, 125 °C 6 h
[7] = PVA membrane 87% hydrolysis, Mn 20-220 kDa, 8% citric acid, 125 °C 6 h
[8] = PVA membrane 87% hydrolysis, Mn 20-220 kDa, 12% citric acid, 125 °C 6 h
[9] = PVA membrane 87% hydrolysis, Mn 20-220 kDa, 20% citric acid, 125 °C 6 h
[10] = PVA membrane 87% hydrolysis, Mn 20-220 kDa, 30% citric acid, 125 °C 6 h
[11] = PVA membrane 87% hydrolysis, Mn 146-186 kDa, 4% citric acid, 125 °C 6 h
[12] = PVA membrane 87% hydrolysis, Mn 146-186 kDa, 8% citric acid, 125 °C 6 h
[13] = PVA membrane 87% hydrolysis, Mn 146-186 kDa, 12% citric acid, 125 °C 6 h
[14] = PVA membrane >99% hydrolysis, Mn 90 kDa, 8% citric acid, 125 °C 6 h
[15] = PVA membrane >99% hydrolysis, Mn 90 kDa, 12% citric acid, 125 °C 6 h
[16] = PVA membrane >99% hydrolysis, Mn 90 kDa, 20% citric acid, 125 °C 6 h
[17] = PVA membrane >99% hydrolysis, Mn 146-186 kDa, 0% citric acid, 125 °C 6 h
[18] = PVA membrane >99% hydrolysis, Mn 146-186 kDa, 0% citric acid, 129 °C 3 h
[19] = PVA membrane >99% hydrolysis, Mn 146-186 kDa, 0% citric acid, 140 °C 6 h
[20] = PVA membrane >99% hydrolysis, Mn 146-186 kDa, 4% citric acid, 125 °C 6 h
[21] = PVA membrane >99% hydrolysis, Mn 146-186 kDa, 4% citric acid, 140 °C 6 h
[22] = PVA membrane >99% hydrolysis, Mn 146-186 kDa, 8% citric acid, 125 °C 6 h
[23] = PVA membrane >99% hydrolysis, Mn 146-186 kDa, 12% citric acid, 125 °C 6 h

Rate of dissolution slowed as compared to commercial ropivacaine ([1]; FIG. 1A): about 10 times
Compound accounted for in this assay [1, 5]: 100-120%
Material dissolved over the first 6 hours (gradual dissolution) [1, 5]: 60%
SMILES: CCCN1CCCC[C@H]1C(=O)Nc1c(C)cccc1C [recrystallized ropivacaine, ropivacaine]

Time to reach dissolution plateau ([1]; 17 mg sample, large vessel (500 mL, 50 rpm), PBS with 0.1% SDS, 37° C.): ≤ 4 h
Ropivacaine added to the experiment accounted for ([1]; 17 mg sample, large vessel, at plateau): approximately 80%
Material dissolved within 30 minutes [1, 5]: greater than 60%
Magnitude of the burst (Y-intercept of regression), compared to the recrystallized sample ([1]; small vessel apparatus, burst phase within first 30 minutes): 25 ×
SMILES: CCCN1CCCC[C@H]1C(=O)Nc1c(C)cccc1C [commercial ropivacaine, ropivacaine]

SMILES: CCCCN1CCCCC1C(=O)Nc1c(C)cccc1C (centres unmarked) [conventional bupivacaine, bupivacaine]
Duration of action (postsurgical pain): ≤ 7 h

Assayed content of saturated ropivacaine donor fluid ([2]; PBS pH 7.3, excess solid stirred 3 days, filtered 0.22 μm): 339.98 μg/m L
Diffusion of ropivacaine in PBS (diffusion coefficient) ([2]; PBS, no membrane, D defined in cm^2/s): 4.97×10^−6
D, ropivacaine diffusion coefficient [2, 6]: 1.94E−07 cm^2/s and 2.23E−07 cm^2/s
D, ropivacaine diffusion coefficient [2, 7]: 2.20E−07 cm^2/s and 3.01E−07 cm^2/s
D, ropivacaine diffusion coefficient [2, 8]: 4.30E−07 cm^2/s and 5.43E−07 cm^2/s
D, ropivacaine diffusion coefficient [2, 9]: 6.26E−07 cm^2/s and 3.64E−07 cm^2/s
D, ropivacaine diffusion coefficient [2, 10]: 4.88E−07 cm^2/s and 2.82E−07 cm^2/s
D, ropivacaine diffusion coefficient [2, 11]: 2.32E−07 cm^2/s and 2.64E−07 cm^2/s
D, ropivacaine diffusion coefficient [2, 12]: 2.30E−07 cm^2/s and 2.93E−07 cm^2/s
D, ropivacaine diffusion coefficient [2, 13]: 3.85E−07 cm^2/s and 2.90E−07 cm^2/s
D, ropivacaine diffusion coefficient [2, 14]: 1.68E−07 cm^2/s and 1.99E−07 cm^2/s
D, ropivacaine diffusion coefficient [2, 15]: 3.59E−07 cm^2/s and 3.41E−07 cm^2/s
D, ropivacaine diffusion coefficient [2, 16]: 2.38E−07 cm^2/s and 2.01E−07 cm^2/s
D, ropivacaine diffusion coefficient [2, 17]: 9.09E−08 cm^2/s and 9.21E−08 cm^2/s
D, ropivacaine diffusion coefficient [2, 18]: 1.47E−07 cm^2/s
D, ropivacaine diffusion coefficient [2, 19]: 1.33E−07 cm^2/s and 1.19E−07 cm^2/s
D, ropivacaine diffusion coefficient [2, 20]: 2.40E−07 cm^2/s and 2.15E−07 cm^2/s
D, ropivacaine diffusion coefficient [2, 21]: 1.97E−07 cm^2/s and 1.44E−07 cm^2/s
D, ropivacaine diffusion coefficient [2, 22]: 2.02E−07 cm^2/s and 1.91E−07 cm^2/s
D, ropivacaine diffusion coefficient [2, 23]: 2.41E−07 cm^2/s and 2.18E−07 cm^2/s
Decrease in diffusion coefficient compared to diffusion of ropivacaine in PBS ([2]; PVA membranes 146-186 kDa, >99% hydrolysis, after thermal curing and physical crosslinking): 50 times
Fold Decrease in D [2, 6]: 26 and 22
Fold Decrease in D [2, 7]: 23 and 17
Fold Decrease in D [2, 8]: 12 and 9
Fold Decrease in D [2, 9]: 8 and 14
Fold Decrease in D [2, 10]: 10 and 18
Fold Decrease in D [2, 11]: 21 and 19
Fold Decrease in D [2, 12]: 22 and 17
Fold Decrease in D [2, 13]: 13 and 17
Fold Decrease in D [2, 14]: 30 and 25
Fold Decrease in D [2, 15]: 14 and 15
Fold Decrease in D [2, 16]: 21 and 25
Fold Decrease in D [2, 17]: 55 and 54
Fold Decrease in D [2, 18]: 34
Fold Decrease in D [2, 19]: 37 and 42
Fold Decrease in D [2, 20]: 21 and 23
Fold Decrease in D [2, 21]: 25 and 34
Fold Decrease in D [2, 22]: 25 and 26
Fold Decrease in D [2, 23]: 21 and 23
solubility ([3]; PBS + 0.05% SDS, pH 7.4, aqueous with cosolvent or surfactant or cyclodextrin): 254 ± 14 µg/mL
solubility ([3]; PBS + 68 mg/mL BSA, pH 7.4, plasma or biological fluid): 792 ± 111 µg/mL
solubility ([3]; PBS + 0.1% SDS, pH 7.4, aqueous with cosolvent or surfactant or cyclodextrin): 306 ± 18 µg/mL
solubility ([3]; PBS + 0.2% SDS, pH 7.4, aqueous with cosolvent or surfactant or cyclodextrin): 350 ± 12 µg/mL
solubility ([3]; aqueous buffer, PBS (pH 7.4)): 254 ± 13 µg/mL (≈ 926 µM)
Intrinsic dissolution compared with ropivacaine coated with PVA membrane [4]: much more rapid
SMILES: CCCN1CCCC[C@H]1C(=O)Nc1c(C)cccc1C [ropivacaine]
